From patent publication US20260364184A1, “COMPOUND BASED ON OXOISOINDOLINYL-SUBSTITUTED TETRAHYDROPYRIMIDINE-DIONE AND USE THEREOF” (GLUETACS THERAPEUTICS (SHANGHAI) CO., LTD., priority 2023, published 2026)

Key:
[1] = biological target: T1, EGFR (Homo sapiens, UniProt P00533); assay: Western blot degradation of EGFR; format: cell-based; details: H1975 Cell; 24 hours
T1 construct: L858R/T790M in cis, heterozygous with wild type), Western blot
Protocol: Conventional Western blot assay was performed to evaluate the effects of the compounds of the present disclosure on the expression of target proteins in cells.
(1) Cell Seeding and Protein Harvesting: The selected cells were processed according to the cell seeding procedure and protein harvesting procedure in Table II-2.
(2) To the collected supernatant, 5×SDS sample loading buffer was added, followed by denaturation at 95 °C for 5 minutes. The denatured samples were then separated by SDS-PAGE electrophoresis on a polyacrylamide gel. Proteins were transferred to a nitrocellulose membrane (0.45 μm NC membrane), blocked with blocking buffer at room temperature for 1 hour, and subjected to antibody incubation and development procedures according to the antibody manufacturer's instructions (Cell Signaling Technology).
Half-Maximal Degradation Concentration value (the drug concentration required for degrading proteins by 50%, abbreviated as DC50) reads method: comparing the grayscale values of Western blot bands from drug-treated samples with those from blank DMSO-treated controls, and identifying the drug concentration range at which the grayscale value is half that of the DMSO-treated control bands.
DC50 values can be calculated using ImageJ software to measure grayscale values of Western blot bands from drug-treated samples. The concentration-response curve is fitted to estimate the drug concentration corresponding to half the grayscale value.
Target protein remaining (%) refers to the percentage of target protein remaining in cells after treatment with protein degrader compounds.
Calculation method for target protein remaining (%): Use ImageJ software to measure grayscale values of Western blot bands from drug (protein degrader)-treated samples. The grayscale value of drug-treated bands is divided by that of internal control protein bands, and the resulting quotient is normalized to obtain the relative percentage of remaining target protein after protein degrader treatment.
Target protein degradation rate (%)=1−target protein remaining (%).

[2] = test system: Human neuroblastoma cell line (SK-N-AS); assay: Inhibition of SK-N-AS cell proliferation (CellTiter luminescent viability); format: cell-based; details: Table II2, EZH2 inhibitor-based, 96 hours; for inhibition at 0.01 µM: 10 nM, read-out: Inhibition Rate at 10 nM (%); for inhibition at 0.5 µM: 500 nM, read-out: Inhibition Rate at 500 nM (%)
Protocol: The tumor cells used herein were cultured in a cell culture medium listed in table 3 at 37 °C in an incubator with 5% CO2. Prior to experimentation, all cell lines used were correctly identified by STR profiling, and tested negative for mycoplasma contamination using a mycoplasma detection kit through routine screenings.
The IC50 values of the compounds of the present disclosure (including the compounds in Table 1, Table 2, and Examples 1-468) were determined using the CellTiter-Meiluncell Luminescent Cell Viability Assay Kit from Dalian Meilun Biotech Co., Ltd. The detailed procedure is as follows: Tumor cells were seeded in 96-well cell culture plates at the densities specified in Table 4. On the following day, the test compounds of the present disclosure were subjected to serial dilution. The dilution can be performed according to one of the following two methods: • (1) The first dilution method: The test compounds of the present disclosure (including the compounds in Table 1, Table 2, and Examples 1-468) were subjected to 5-fold serial dilutions starting from a highest concentration of 2000 μM, resulting in a total of 9 concentrations from high to low (2000, 400, 80, 16, 3.2, 0.64, 0.128, 0.0256, 0.00512 μM). Subsequently, 0.5 μL of the test compound dilution was transferred into the 96-well plate containing the cells, with each well containing 100 μL of cell culture medium. […] Into the 96-well plate, the diluted test compounds and corresponding detection reagents were added, resulting in final test compound concentrations of 500 nM and 10 nM, respectively. The experimental procedure is described below using the diluted 2 μM test compound as an example.
0.5 μL of the aforementioned diluted compound of the present disclosure (including the compounds in Table 1, Table 2, and Examples 1-468) was added to the seeded cells in 100 μL of medium, yielding a final test compound concentration of 10 nM. After the cells were treated with the compounds of the present disclosure for a specified period, the cell viability assay reagent was added to the culture medium according to the kit's instructions to determine cell viability. […] All controls were treated using the same procedure as the compounds of the present disclosure. The growth inhibition curves for the compounds of the present disclosure were plotted using Prism GraphPad software, and the IC50 values were calculated therefrom.

T1 sequence (P00533 25-1210): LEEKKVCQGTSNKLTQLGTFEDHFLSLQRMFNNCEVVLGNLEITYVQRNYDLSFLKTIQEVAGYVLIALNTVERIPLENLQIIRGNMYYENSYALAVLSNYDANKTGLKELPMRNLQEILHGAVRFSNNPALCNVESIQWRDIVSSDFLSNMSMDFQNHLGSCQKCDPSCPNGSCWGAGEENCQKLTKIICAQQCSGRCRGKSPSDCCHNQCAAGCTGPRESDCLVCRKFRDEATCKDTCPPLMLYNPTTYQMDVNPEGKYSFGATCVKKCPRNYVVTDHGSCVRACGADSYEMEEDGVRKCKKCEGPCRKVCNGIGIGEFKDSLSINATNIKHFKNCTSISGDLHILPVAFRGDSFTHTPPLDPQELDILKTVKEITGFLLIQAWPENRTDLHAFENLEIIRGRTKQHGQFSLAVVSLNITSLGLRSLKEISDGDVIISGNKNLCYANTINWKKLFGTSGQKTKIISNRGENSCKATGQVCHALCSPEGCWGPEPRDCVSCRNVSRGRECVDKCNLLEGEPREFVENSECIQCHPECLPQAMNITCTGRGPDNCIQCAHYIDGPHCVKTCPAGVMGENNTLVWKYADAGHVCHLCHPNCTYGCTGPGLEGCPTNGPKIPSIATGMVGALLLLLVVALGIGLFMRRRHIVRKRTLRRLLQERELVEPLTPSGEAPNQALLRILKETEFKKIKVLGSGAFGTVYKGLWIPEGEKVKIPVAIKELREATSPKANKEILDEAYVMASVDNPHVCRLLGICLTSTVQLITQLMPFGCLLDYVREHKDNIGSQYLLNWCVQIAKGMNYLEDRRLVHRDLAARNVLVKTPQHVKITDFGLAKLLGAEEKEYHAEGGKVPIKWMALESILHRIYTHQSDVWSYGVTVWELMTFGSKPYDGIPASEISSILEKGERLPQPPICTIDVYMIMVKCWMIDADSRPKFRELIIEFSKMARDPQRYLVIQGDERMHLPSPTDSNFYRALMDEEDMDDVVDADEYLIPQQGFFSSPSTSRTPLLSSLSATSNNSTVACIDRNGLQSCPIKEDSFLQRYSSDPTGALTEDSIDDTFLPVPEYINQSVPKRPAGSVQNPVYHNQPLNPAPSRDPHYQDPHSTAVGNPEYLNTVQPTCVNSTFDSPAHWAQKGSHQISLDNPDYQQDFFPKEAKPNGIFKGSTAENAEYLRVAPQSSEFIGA
T1 sequence (Q96SW2 whole entry partner): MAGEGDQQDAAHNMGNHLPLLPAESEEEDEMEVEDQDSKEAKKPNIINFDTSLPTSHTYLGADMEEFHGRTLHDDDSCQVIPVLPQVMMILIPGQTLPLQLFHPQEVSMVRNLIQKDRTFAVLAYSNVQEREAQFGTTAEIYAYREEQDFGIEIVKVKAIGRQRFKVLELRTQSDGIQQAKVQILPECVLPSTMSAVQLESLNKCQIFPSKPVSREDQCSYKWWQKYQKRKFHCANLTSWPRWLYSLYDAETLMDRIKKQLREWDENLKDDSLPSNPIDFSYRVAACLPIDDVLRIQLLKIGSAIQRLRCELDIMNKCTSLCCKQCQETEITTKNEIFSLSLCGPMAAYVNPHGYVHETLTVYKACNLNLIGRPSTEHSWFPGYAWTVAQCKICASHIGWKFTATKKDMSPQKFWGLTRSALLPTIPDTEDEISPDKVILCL

SMILES	Degradation of substrate protein EGFR (substrate protein remaining %) [1]	inhibition at 0.01 µM [2] [%]	inhibition at 0.5 µM [2] [%]
O=C1CCN(N2Cc3cc(CN4CCN(c5ccc(Nc6ncc7nc(Nc8ccccc8)n(C8CCCC8)c7n6)cc5)CC4)ccc3C2=O)C(=O)N1 [GT-05836, 1-(5-((4-(4-((9-cyclopentyl-8-(phenylamino)-9H-purin-2-yl)amino)phenyl)piperazin-1-yl)methyl)-1-oxoisoindolin-2-yl)dihydropyrimidine-2,4 (1H,3H)-dione]	A (0%≤substrate protein remaining %≤80%)		
CN(CC1CCN(c2ccc3c(c2)C(=O)N(N2CCC(=O)NC2=O)C3=O)CC1)C1CCN(c2ccc(Nc3ncc4nc(Nc5ccccc5)n(C5CCCC5)c4n3)cc2)CC1 [GT-05843, 5-(4-(((1-(4-((9-cyclopentyl-8-(phenylamino)-9H-purin-2-yl)amino)phenyl)piperidin-4-yl)(methyl)amino)methyl)piperidin-1-yl)-2-(2,4-dioxotetrahydropyrimidin-1(2H)-yl)isoindoline-1,3-dione]	A (0%≤substrate protein remaining %≤80%)		
O=C1CCN(N2Cc3cc(CN4CCN(C5CCN(c6ccc(Nc7ncc8nc(Nc9ccccc9)n(C9CCCC9)c8n7)cc6)CC5)CC4)ccc3C2=O)C(=O)N1 [GT-05914, 1-(5-((4-(1-(4-((9-cyclopentyl-8-(phenylamino)-9H-purin-2-yl)amino)phenyl)piperidin-4-yl)piperazin-1-yl)methyl)-1-oxoisoindolin-2-yl)dihydropyrimidine-2,4 (1H,3H)-dione]	A (0%≤substrate protein remaining %≤80%)		
COc1cc(N2CCN(Cc3ccc4c(c3)CN(N3CCC(=O)NC3=O)C4=O)CC2)c(C)cc1Nc1ncc(Br)c(Nc2ccc3nccnc3c2P(C)(C)=O)n1 [GT-05946, 1-(5-((4-(4-((5-bromo-4-((5-(dimethylphosphoryl)quinoxalin-6-yl)amino)pyrimidin-2-yl)amino)-5-methoxy-2-methylphenyl)piperazin-1-yl)methyl)-1-oxoisoindolin-2-yl)dihydropyrimidine-2,4 (1H,3H)-dione]	A (0%≤substrate protein remaining %≤80%)		
O=C1CCN(N2C(=O)c3ccc(N4CCC(CN5CCN(C6CCN(c7ccc(Nc8ncc9nc(Nc%10ccccc%10)n(C%10CCCC%10)c9n8)cc7)CC6)CC5)CC4)cc3C2=O)C(=O)N1 [GT-05955, 5-(4-((4-(1-(4-((9-cyclopentyl-8-(phenylamino)-9H-purin-2-yl)amino)phenyl)piperidin-4-yl)piperazin-1-yl)methyl)piperidin-1-yl)-2-(2,4-dioxotetrahydropyrimidin-1(2H)-yl)isoindoline-1,3-dione]	A (0%≤substrate protein remaining %≤80%)		
COc1cc(N2CCC(N3CCN(Cc4ccc5c(c4)CN(N4CCC(=O)NC4=O)C5=O)CC3)CC2)c(C)cc1Nc1ncc(Br)c(Nc2ccc3nccnc3c2P(C)(C)=O)n1 [GT-05996, 1-(5-((4-(1-(4-((5-bromo-4-((5-(dimethylphosphoryl)quinoxalin-6-yl)amino)pyrimidin-2-yl)amino)-5-methoxy-2-methylphenyl)piperidin-4-yl)piperazin-1-yl)methyl)-1-oxoisoindolin-2-yl)dihydropyrimidine-2,4 (1H,3H)-dione]	A (0%≤substrate protein remaining %≤80%)		
COc1cc(N2CCC(N3CCN(CC4CCN(c5ccc6c(c5)C(=O)N(N5CCC(=O)NC5=O)C6=O)CC4)CC3)CC2)c(C)cc1Nc1ncc(Br)c(Nc2ccc3nccnc3c2P(C)(C)=O)n1 [GT-05997, 5-(4-((4-(1-(4-((5-bromo-4-((5-(dimethylphosphoryl)quinoxalin-6-yl)amino)pyrimidin-2-yl)amino)-5-methoxy-2-methylphenyl)piperidin-4-yl)piperazin-1-yl)methyl)piperidin-1-yl)-2-(2,4-dioxotetrahydropyrimidin-1(2H)-yl)isoindoline-1,3-dione]	A (0%≤substrate protein remaining %≤80%)		
COc1cc(N2CCC(N3CCN(CC4CCN(c5cccc6c5C(=O)N(N5CCC(=O)NC5=O)C6=O)CC4)CC3)CC2)c(C)cc1Nc1ncc(Br)c(Nc2ccc3nccnc3c2P(C)(C)=O)n1 [GT-05998, 4-(4-((4-(1-(4-((5-bromo-4-((5-(dimethylphosphoryl)quinoxalin-6-yl)amino)pyrimidin-2-yl)amino)-5-methoxy-2-methylphenyl)piperidin-4-yl)piperazin-1-yl)methyl)piperidin-1-yl)-2-(2,4-dioxotetrahydropyrimidin-1(2H)-yl)isoindoline-1,3-dione]	A (0%≤substrate protein remaining %≤80%)		
CC(C)n1nc(N2CCC(N(C)Cc3ccc4c(c3)CN(N3CCC(=O)NC3=O)C4=O)CC2)c2cnc(Nc3ccnc(-c4cnn(S(=O)(=O)C5CC5)c4)n3)cc21 [GT-06019, 1-(5-(((1-(6-((2-(1-(cyclopropylsulfonyl)-1H-pyrazol-4-yl)pyrimidin-4-yl)amino)-1-isopropyl-1H-pyrazolo[4,3-c]pyridin-3-yl)piperidin-4-yl)(methyl)amino)methyl)-1-oxoisoindolin-2-yl)dihydropyrimidine-2,4 (1H,3H)-dione]	A (0%≤substrate protein remaining %≤80%)		
CCN(c1cc(-c2ccc(N3CCC(N(C)Cc4ccc5c(c4)CN(N4CCC(=O)NC4=O)C5=O)CC3)cc2)cc(C(=O)NCc2c(C)cc(C)[nH]c2=O)c1C)C1CCOCC1 [GT-08512, N-((4,6-dimethyl-2-oxo-1,2-dihydropyridin-3-yl)methyl)-4′-(4-(((2-(2,4-dioxotetrahydropyrimidin-1(2H)-yl)-1-oxoisoindolin-5-yl)methyl)(methyl)amino)piperidin-1-yl)-5-(ethyl(tetrahydro-2H-pyran-4-yl)amino)-4-methyl-[1,1′-biphenyl]-3-carboxamide]		10 to 15	20 to 30
CCN(c1cc(-c2ccc(CN3CCN(CC4CCN(c5cccc6c5C(=O)N(N5CCC(=O)NC5=O)C6=O)CC4)CC3)cc2)cc(C(=O)NCc2c(C)cc(C)[nH]c2=O)c1C)C1CCOCC1 [GT-08519, N-((4,6-dimethyl-2-oxo-1,2-dihydropyridin-3-yl)methyl)-4′-((4-((1-(2-(2,4-dioxotetrahydropyrimidin-1(2H)-yl)-1,3-dioxoisoindolin-4-yl)piperidin-4-yl)methyl)piperazin-1-yl)methyl)-5-(ethyl(tetrahydro-2H-pyran-4-yl)amino)-4-methyl-[1,1′-biphenyl]-3-carboxamide]		10 to 15	20 to 30
CCN(c1cc(-c2ccc(N3CCN(CC4CCN(c5cccc6c5C(=O)N(N5CCC(=O)NC5=O)C6=O)CC4)CC3)cc2)cc(C(=O)NCc2c(C)cc(C)[nH]c2=O)c1C)C1CCOCC1 [GT-08521, N-((4,6-dimethyl-2-oxo-1,2-dihydropyridin-3-yl)methyl)-4′-(4-((1-(2-(2,4-dioxotetrahydropyrimidin-1(2H)-yl)-1,3-dioxoisoindolin-4-yl)piperidin-4-yl)methyl)piperazin-1-yl)-5-(ethyl(tetrahydro-2H-pyran-4-yl)amino)-4-methyl-[1,1′-biphenyl]-3-carboxamide]		20 to 30	30 to 40
CCCc1cc(C)[nH]c(=O)c1CNC(=O)c1cc(-c2ccc(N3CCN(C(C)C)CC3)nc2)cc2c1cnn2C(C)C [UNC1999, reference compound]		0 to 5	0 to 5
